The source of these data is patent US20230382928A1, “EUROPIUM(III) COMPLEXES AS PH SENSORS” (CISBIO BIOASSAYS, priority 2020, published 2023).

Data set [1] in a line: Absorption spectra / molar extinction coefficient (Beer-Lambert). It is filed as physicochemical. To be noted: for λexc (nm): excitation wavelength; for ε: molar extinction coefficient at λexc. How it is done: The properties of representative complexes of the invention (complexes 14, 18, 21, 78a, 78b, 88a, 88b, 93, 104) were investigated. The presence of the Boc-group was not predicted to alter these properties. The experiments were thus carried out with the Boc group for the functionalized complexes. The absorption and emission spectra were recorded in a pH gradient (pH 4 to pH 10).
(§1) Traditionally, molar extinction coefficients, ε, are calculated using the Beer-Lambert equation and involve measuring the absorbance of a series of solutions of a complex at different known concentrations. A plot of absorbance at a particular wavelength against concentration allows determination of ε from the gradient of the linear correlation. The quantum yield (QY) of the complexes increases as the pH decreases. For complexes 78b, 88a, 88b and 93, the quantum yield at pH 8 is approaching 0 meaning that the complexes are therefore hardly emissive at physiological pH and conversely, these complexes are very bright at pH 4.
This could be useful as excitation at, or near, this wavelength would allow equal excitation of both the unprotonated and protonated complex, which exist in a pH-dependent equilibrium in solution. An isosbestic point was not observed for Complex 14.

The nature of data set [2]: Quantum yield of europium complexes at different pH. It is filed as physicochemical. The conditions noted are these: for Q.Y. pH 4 / Q.Y. pH 8: text gives the same values in %; for Q.Y. pH 4 / ΦpH 4 (quantum yield): pH 4; for ΦpH 4 (quantum yield) / ΦpH 8 (quantum yield): λexc 330-332 nm; for Q.Y. pH 8 / ΦpH 8 (quantum yield): pH 8. On the procedure:
The properties of representative complexes of the invention (complexes 14, 18, 21, 78a, 78b, 88a, 88b, 93, 104) were investigated. The presence of the Boc-group was not predicted to alter these properties. The experiments were thus carried out with the Boc group for the functionalized complexes. […]
as §1

Data set [3] is described as follows: Excited state (emission) lifetime at different pH. The data set is classed as physicochemical.
Experimental: (§2) An emission lifetime value at each pH was obtained by plotting the decay of the emission lifetime over time and fitting the curve to a simple exponential decay model. The pKa values of the complexes were determined for the reversible protonation.
Data set [4] can be described thus: pKa determination from emission lifetime variation versus pH.
Experimental: as §2
Data set [5] can be described thus: Fluorescence intensity at 620 nm as a function of pH (Pherastar FS plate reader). The data set is classed as physicochemical. The conditions noted are these: pH 4 to pH 7.8; 0.1% BSA; FIG. 29. On the procedure:
The fluorescence intensity of representative complexes of the invention (78a, 78b, 104) was measured using a Plate Reader Pherastar FS equipped with a flash lamp. The buffers (pH 4 to pH 7.8) were distributed in a white 96-well plate, then the lanthanide complexes (10 μL at 110 nM) were distributed in an aqueous solution comprising 0.1% BSA. By way of comparison, the fluorescence intensity of the following complexes was also measured: […]

For the compound `CCN(CC)c1cc(C#Cc2cc(CN3CCN(Cc4cc(C#Cc5ccc(OC)c(N(CC)CC)c5)cc(P(C)(=O)[O-])n4)CCN(Cc4cc(C#Cc5ccc(OC)c(N(CC)CC)c5)cc(P(C)(=O)[O-])n4)CC3)nc(P(C)(=O)[O-])c2)ccc1OC.[Eu+3]` [Complex 21], the “ε (molar extinction coefficient)” value in data set [1] (at the wavelength (330-331 nm)) was found to be 45000 L M^−1 cm^−1. The “λexc (nm)” value in data set [1] is reported as 331 nm. The “ε” value in data set [1] worked out at 45000 M⁻¹ cm⁻¹. Also, the Q.Y. pH 4 in data set [2] was found to be 17%. For the same compound, in data set [2], the Q.Y. pH 8 was determined as 0.1%. Moreover, the Excited state lifetime in data set [3] (pH 4) is given as 0.84 ms; in data set [3] (pH 5) it was 0.83 ms; in data set [3] (pH 6), 0.59 ms; in data set [3] (pH 7), 0.32 ms; in data set [3] (pH 8), 0.25 ms; in data set [3] (pH 9), 0.24 ms. In data set [4] (295 K, I = 0.1M NaCl), this compound yielded a pKa of 6.21.
In the case of `CCN(C)c1cc(C#Cc2cc(CN3CCN(Cc4cc(C#Cc5ccc(OCCCC(=O)NCCCS(=O)(=O)[O-])c(N(C)CC)c5)cc(P(C)(=O)[O-])n4)CCN(Cc4cc(CCCNC(=O)OC(C)(C)C)cc(P(C)(=O)[O-])n4)CC3)nc(P(C)(=O)[O-])c2)ccc1OCCCC(=O)NCCCS(=O)(=O)[O-].[Eu+3]` [Complex 78b], the “ε (molar extinction coefficient)” value in data set [1] (at the wavelength (330-331 nm)) is 39000 L M^−1 cm^−1. In data set [1], the “λexc (nm)” value was 330 nm. The “ε” value in data set [1] was found to be 39000 M⁻¹ cm⁻¹. Besides, the Q.Y. pH 4 in data set [2] was determined as 14.5%. Besides, the “ΦpH 4 (quantum yield)” value in data set [2] amounted to 14.5%. In data set [2], the “ΦpH 8 (quantum yield)” value worked out at 0.01%. Also, the Excited state lifetime in data set [3] (pH 4) is 1.05 ms; in data set [3] (pH 5), 0.77 ms; in data set [3] (pH 6) it was 0.42 ms; in data set [3] (pH 7) it was 0.29 ms; in data set [3] (pH 8, listed as 78b), 0.3 ms; in data set [3] (pH 8, listed as drawing 110), 0.30 ms. Further, the “variation of fluorescence intensity at 620 nm as a function of pH” value (shortened to “variation of fluorescence intensity”) in data set [5] is “pH sensitive”. In data set [4] (295 K, I = 0.1M NaCl), this compound yielded a pKa of 5.34.
For `CCN(CC)c1cc(C#Cc2cc(CN3CCN(Cc4cc(C#Cc5ccc(OCCCC(=O)NCCCS(=O)(=O)[O-])c(N(CC)CC)c5)cc(P(C)(=O)[O-])n4)CCN(Cc4cc(CCCNC(=O)OC(C)(C)C)cc(P(C)(=O)[O-])n4)CC3)nc(P(C)(=O)[O-])c2)ccc1OCCCC(=O)NCCCS(=O)(=O)[O-].[Eu+3]` [Complex 78a], the “ε (molar extinction coefficient)” value in data set [1] (at the wavelength (330-331 nm)) is 39000 L M^−1 cm^−1. Further, in data set [1], the “λexc (nm)” value is reported as 330 nm. Besides, the “ε” value in data set [1] came out at 39000 M⁻¹ cm⁻¹. In data set [2], this compound registered a Q.Y. pH 4 of 16%. The “ΦpH 4 (quantum yield)” value in data set [2] turned out to be 16%. Besides, the Q.Y. pH 8 in data set [2] came out at 0.3%. In data set [2], the “ΦpH 8 (quantum yield)” value is given as 0.3%. Further, the Excited state lifetime in data set [3] (pH 4) is on record as 1.04 ms; in data set [3] (pH 5) it was 0.98 ms; in data set [3] (pH 6, listed as 78a) it was 0.7 ms; in data set [3] (pH 6, listed as drawing 109), 0.70 ms; in data set [3] (pH 7), 0.34 ms; in data set [3] (pH 8), 0.25 ms. Besides, the “variation of fluorescence intensity” value in data set [5] was “pH sensitive”. Further, the pKa in data set [4] (295 K, I = 0.1M NaCl) is on record as 6.20.
As to `CCN(CC)c1cc(C#Cc2cc(CN(CC(=O)O)CC(=O)O)nc(CN(CC(=O)O)CC(=O)O)c2)ccc1OCCCN` [Complex 104], in data set [1] (at the wavelength (330-336 nm)), the “ε (molar extinction coefficient)” value came out at 12000 M⁻¹ cm⁻¹. Also, the “λexc (nm)” value in data set [1] is listed as 330 nm. In addition, the “ε” value in data set [1] was 12000 M⁻¹ cm⁻¹. This compound showed a Q.Y. pH 4 in data set [2] of 3.2%. Further, the “ΦpH 4 (quantum yield)” value in data set [2] was 3.2%. Further, the Q.Y. pH 8 in data set [2] turned out to be 0.17%. Moreover, the “ΦpH 8 (quantum yield)” value in data set [2] is given as 0.17%. In addition, the Excited state lifetime in data set [3] (pH 4) was 0.38 ms; in data set [3] (pH 5), 0.37 ms; in data set [3] (pH 6) it was 0.35 ms; in data set [3] (pH 7), 0.32 ms; in data set [3] (pH 8, listed as 104), 0.3 ms; in data set [3] (pH 8, listed as drawing 127), 0.30 ms. Besides, the “variation of fluorescence intensity” value in data set [5] is recorded as “pH sensitive”. This compound also displayed a pKa in data set [4] (0.1 M NaCl (ionic strength)) of 6.35.
`CCN(CC)c1cc(C#Cc2cc(CN3CCN(Cc4cc(C#Cc5ccc(OCCCC(=O)O)c(N(CC)CC)c5)cc(P(C)(=O)[O-])n4)CCN(Cc4cc(CCCNC(=O)OC(C)(C)C)cc(P(C)(=O)[O-])n4)CC3)nc(P(C)(=O)[O-])c2)ccc1OCCCC(=O)O.[Eu+3]` [Complex 77a]: the Excited state lifetime turned out to be 0.97 ms in data set [3] (pH 4); 0.95 ms in data set [3] (pH 5); 0.53 ms in data set [3] (pH 6); 0.39 ms in data set [3] (pH 7); 0.27 ms in data set [3] (pH 8).
Consider `CCN(CCCS(=O)(=O)O)c1cc(C#Cc2cc(CN3CCN(Cc4cc(C#Cc5ccc(OC)c(N(CC)CCCS(=O)(=O)O)c5)cc(P(C)(=O)O)n4)CCN(Cc4cc(CCCNC(=O)OC(C)(C)C)cc(P(C)(=O)O)n4)CC3)nc(P(C)(=O)O)c2)ccc1OC` [Complex 88a], for which the “ε (molar extinction coefficient)” value in data set [1] (at the wavelength (330-336 nm)) was 35000 M⁻¹ cm⁻¹. Also, the “λexc (nm)” value in data set [1] was determined as 332 nm. For the same compound, the “ε” value in data set [1] came to 35000 M⁻¹ cm⁻¹. In data set [2], this compound showed a Q.Y. pH 4 of 13.4%. Further, the “ΦpH 4 (quantum yield)” value in data set [2] turned out to be 13.4%. Also, the “ΦpH 8 (quantum yield)” value in data set [2] is given as 0.06%. Further, the Excited state lifetime turned out to be 1.07 ms in data set [3] (pH 4); 0.76 ms in data set [3] (pH 5); 0.41 ms in data set [3] (pH 6); 0.29 ms in data set [3] (pH 7); 0.31 ms in data set [3] (pH 8); 0.31 ms in data set [3] (pH 9). In data set [4] (0.1 M NaCl (ionic strength)), this compound returned a pKa of 5.2.
In the case of `CCN(CC)c1cc(C#Cc2cc(CN3CCN(Cc4cccc(P(C)(=O)[O-])n4)CCN(Cc4cccc(P(C)(=O)[O-])n4)CC3)nc(P(C)(=O)[O-])c2)ccc1OC.[Eu+3]` [Complex 14], in data set [1] (absorption spectra pH 4 to 10), the isosbestic point result is reported as “not observed”. Further, the “ε (molar extinction coefficient)” value in data set [1] (at the wavelength (330-336 nm)) was found to be 11450 M⁻¹ cm⁻¹. The “λexc (nm)” value in data set [1] worked out at 331 nm. Moreover, the “ε” value in data set [1] came to 11450 M⁻¹ cm⁻¹. The compound also gave a Q.Y. pH 4 in data set [2] of 16.8%. Besides, the “ΦpH 4 (quantum yield)” value in data set [2] is listed as 16.8%. Moreover, the Q.Y. pH 8 in data set [2] turned out to be 0.5%. Moreover, the “ΦpH 8 (quantum yield)” value in data set [2] is 0.5%. Further, the Excited state lifetime in data set [3] (pH 4) worked out at 1.16 ms; in data set [3] (pH 5), 1.15 ms; in data set [3] (pH 6) it was 1.06 ms; in data set [3] (pH 7), 0.74 ms; in data set [3] (pH 8) it was 0.53 ms; in data set [3] (pH 9, listed as 14), 0.5 ms. The compound further came in with an Excited state lifetime in data set [3] (pH 9, listed as drawing 59) of 0.50 ms. The pKa in data set [4] (295 K, I = 0.1M NaCl) was found to be 6.75.
